According to patent US20150150253A1, “CROP ENHANCEMENT COMPOSITIONS” (Syngenta Participations AG, priority 2012, published 2015):
Where “and” joins values, the source holds several entries; their conditions need not be identical. Equal values may be shown once. Read-outs that look alike come from different tables or passages of the source.

Columns and labels:
Gaeumannomyces graminis = Gaeumannomyces graminis / liquid culture (take-all of cereals), well plate mixture test; format: cell-based
[1] = tested on: Thanatephorus cucumeris (Rhizoctonia solani)
Description: A synergistic effect exists whenever the action of an active ingredient combination is greater than the sum of the actions of the individual components.
ppm=milligrams of active ingredient (=a.i.) per liter of spray mixture X=% action by active ingredient A) using p ppm of active ingredient Y=% action by active ingredient B) using q ppm of active ingredient. According to COLBY, the expected (additive) action of active ingredients A)+B) using p+q ppm of active ingredient is
If the action actually observed (O) is greater than the expected action (E), then the action of the combination is super-additive, i.e. there is a synergistic effect. In mathematical terms, synergism corresponds to a positive value for the difference of (O-E). In the case of purely complementary addition of activities (expected activity), said difference (O-E) is zero. A negative value of said difference (O-E) signals a loss of activity compared to the expected activity.
Method Description Liquid Culture Tests in Well Plates for Mixtures
Thanatephorus cucumeris (Rhizoctonia solani)/Liquid Culture (Foot Rot, Damping-Off)
Mycelia fragments of a newly grown liquid culture of the fungus are directly mixed into nutrient broth (PDB potato dextrose broth). After placing a (DMSO) solution of the test compounds into a microtiter plate (96-well format), the nutrient broth containing the fungal material is added. The test plates are incubated at 24° C. and the inhibition of growth is determined photometrically 3-4 days after application and percent antifungal activity relative to the untreated check is calculated.

Pythium ultimum = Pythium ultimum / liquid culture (seedling damping off), well plate mixture test; format: cell-based
Fusarium culmorum = experiment: microbe, parasite or virus in culture; format: cell-based; conditions: read-out: % efficacy observed
Ustilago nuda = Ustilago nuda / liquid culture (barley loose smut), well plate mixture test; format: cell-based
[2] = tested on: Monographella nivalis (Microdochium nivale); experiment: Monographella nivalis (Microdochium nivale) / liquid culture (foot rot cereals), well plate mixture test; format: cell-based
[3] = Thanatephorus cucumeris, read-out: % efficacy observed

Compound: CC(C)(C)C(O)(CCc1ccc(Cl)cc1)Cn1cncn1 (stereo not shown) [Tebuconazole, tebuconazole]
- Emax at 0.25 µg/mL (Gaeumannomyces graminis; Gaeumannomyces graminis, Tebuconazole 0.2500 mg ai/l, read-out: % efficacy observed): 43.5%
- Emax at 0.5 µg/mL (Gaeumannomyces graminis; Gaeumannomyces graminis, Tebuconazole 0.5000 mg ai/l, read-out: % efficacy observed): 47.5%
- Emax at 1 µg/mL (Gaeumannomyces graminis; Gaeumannomyces graminis, Tebuconazole 1.0000 mg ai/l, read-out: % efficacy observed): 61%
- Emax at 2 µg/mL (Gaeumannomyces graminis; Gaeumannomyces graminis, Tebuconazole 2.0000 mg ai/l, read-out: % efficacy observed): 74%
- Emax at 1 µg/mL ([1]; Thanatephorus cucumeris, read-out: % efficacy observed, Tebuconazole 1.0000 mg ai/l): 0%
- Emax at 2 µg/mL ([1]; Thanatephorus cucumeris, read-out: % efficacy observed, Tebuconazole 2.0000 mg ai/l): 0%

Compound: CO/C=C(/C(=O)OC)c1ccccc1Oc1cc(Oc2ccccc2C#N)ncn1 [Azoxystrobin, azoxystrobin]
- % efficacy observed (Gaeumannomyces graminis; Azoxystrobin 0.0008 mg ai/l): 40.7%
- % efficacy observed (Gaeumannomyces graminis; Azoxystrobin 0.0016 mg ai/l): 67.0%
- % efficacy observed (Gaeumannomyces graminis; Azoxystrobin 0.0031 mg ai/l): 74.8%
- % efficacy observed (Pythium ultimum; Azoxystrobin 0.0250 mg ai/l): 14.0%
- % efficacy observed (Pythium ultimum; Azoxystrobin 0.0500 mg ai/l): 35.6%
- % efficacy observed (Pythium ultimum; Azoxystrobin 0.1000 mg ai/l): 45.3%

Compound: c1ccc2[nH]c(-c3cscn3)nc2c1 [Thiabendazole, thiabendazole]
- Emax at 3 µg/mL (Fusarium culmorum): 45.3%
- Emax at 6 µg/mL (Fusarium culmorum): 71.7%

Compound: Cn1cc(C(=O)Nc2ccccc2C2CC2C2CC2)c(C(F)F)n1 (stereo not shown) [Sedaxane, sedaxane]
- % efficacy observed (Gaeumannomyces graminis; Sedaxane 1.5000 mg ai/l): 46.7%
- % efficacy observed ([1]; Sedaxane 0.0469 mg ai/l): 0.0%
- % efficacy observed ([1]; Sedaxane 0.0938 mg ai/l): 41.1%
- % efficacy observed ([1]; Sedaxane 0.1875 mg ai/l): 71.1%
- % efficacy observed ([1]; Sedaxane 0.3750 mg ai/l): 72.2%
- % efficacy observed ([1]; Sedaxane 0.7500 mg ai/l): 72.2%
- % efficacy observed (Ustilago nuda; Sedaxane 0.0117 mg ai/l): 55.0%

Compound: CC1COC(Cn2cncn2)(c2ccc(Oc3ccc(Cl)cc3)cc2Cl)O1 (stereo not shown) [Difenconazole]
- Emax at 0.5 µg/mL (Gaeumannomyces graminis; Gaeumannomyces graminis, Difenconazole 0.5000 mg ai/l, read-out: % efficacy observed): 0%
- Emax at 1 µg/mL (Gaeumannomyces graminis; Gaeumannomyces graminis, Difenconazole 1.0000 mg ai/l, read-out: % efficacy observed): 10.6%
- Emax at 2 µg/mL (Gaeumannomyces graminis; Gaeumannomyces graminis, Difenconazole 2.0000 mg ai/l, read-out: % efficacy observed): 39%
- Emax at 0.5 µg/mL ([1]; Thanatephorus cucumeris, read-out: % efficacy observed, Difenconazole 0.5000 mg ai/l): 0%
- Emax at 1 µg/mL ([1]; Thanatephorus cucumeris, read-out: % efficacy observed, Difenconazole 1.0000 mg ai/l): 0%
- Emax at 0.5 µg/mL (Ustilago nuda; Ustilago nuda, Difenconazole 0.5000 mg ai/l, read-out: % efficacy observed): 30%
- Emax at 1 µg/mL (Ustilago nuda; Ustilago nuda, Difenconazole 1.0000 mg ai/l, read-out: % efficacy observed): 45.9%
- Emax at 2 µg/mL (Ustilago nuda; Ustilago nuda, Difenconazole 2.0000 mg ai/l, read-out: % efficacy observed): 60.5%

Compound: Cc1nn(C)c(F)c1C(=O)Nc1ccccc1C(C)CC(C)C (stereo not shown) [Penflufen, penflufen]
- % efficacy observed ([2]; Penflufen 1.0000 mg ai/l): 19.4%
- % efficacy observed ([2]; Penflufen 2.0000 mg ai/l): 56.8%
- % efficacy observed ([1]; Penflufen 0.0156 mg ai/l): 20.8%
- % efficacy observed ([1]; Penflufen 0.0313 mg ai/l): 7.5%
- % efficacy observed ([1]; Penflufen 0.0625 mg ai/l): 42.0%
- % efficacy observed ([1]; Penflufen 0.1250 mg ai/l): 64.3%
- % efficacy observed ([1]; Penflufen 0.2500 mg ai/l): 83.3%
- % efficacy observed (Ustilago nuda; Penflufen 0.0039 mg ai/l): 23.1%

Compound: COCC(=O)N(c1c(C)cccc1C)[C@H](C)C(=O)OC [Mefenoxam, mefenoxam]
- % efficacy observed (Pythium ultimum; Mefenoxam 0.0078 mg ai/l): 34.1%
- % efficacy observed (Pythium ultimum; Mefenoxam 0.0156 mg ai/l): 37.8%
- % efficacy observed (Pythium ultimum; Mefenoxam 0.0313 mg ai/l): 70.2%
- % efficacy observed (Pythium ultimum; Mefenoxam 0.0625 mg ai/l): 71.3%
- % efficacy observed (Pythium ultimum; Mefenoxam 0.1250 mg ai/l): 84.4%

Compound: Cn1cc(C(=O)Nc2ccccc2-c2cc(F)c(F)c(F)c2)c(C(F)F)n1 [Fluxapyroxad, fluxapyroxad]
- % efficacy observed ([2]; Fluxapyroxad 0.1875 mg ai/l): 22.2%
- % efficacy observed ([2]; Fluxapyroxad 0.3750 mg ai/l): 55.5%
- % efficacy observed ([2]; Fluxapyroxad 0.7500 mg ai/l): 65.4%
- % efficacy observed ([1]; Fluxapyroxad 0.1875 mg ai/l): 29.7%
- % efficacy observed ([1]; Fluxapyroxad 0.3750 mg ai/l): 61.8%
- % efficacy observed ([1]; Fluxapyroxad 0.7500 mg ai/l): 71.9%
- % efficacy observed ([1]; Fluxapyroxad 1.5000 mg ai/l): 67.9%

Compound: COc1ccc(CC(=O)N(O)Cc2ccc(F)cc2)cc1 [Compound D4]
- % efficacy observed (Gaeumannomyces graminis; D4 0.000000 mg ai/l): 5.3%
- Emax at 0.0781 µg/mL (Gaeumannomyces graminis; Gaeumannomyces graminis, D4 0.0781 mg ai/l, read-out: % efficacy observed): 0%
- Emax at 0.1563 µg/mL (Gaeumannomyces graminis; Gaeumannomyces graminis, D4 0.1563 mg ai/l, read-out: % efficacy observed): 0%
- Emax at 0.3125 µg/mL (Gaeumannomyces graminis; Gaeumannomyces graminis, D4 0.3125 mg ai/l, read-out: % efficacy observed): 0%
- Emax at 0.625 µg/mL (Gaeumannomyces graminis; Gaeumannomyces graminis, D4 0.6250 mg ai/l, read-out: % efficacy observed): 0%
- Emax at 1.25 µg/mL (Gaeumannomyces graminis; Gaeumannomyces graminis, D4 1.2500 mg ai/l, read-out: % efficacy observed): 0%
- Emax at 2.5 µg/mL (Gaeumannomyces graminis; Gaeumannomyces graminis, D4 2.5000 mg ai/l, read-out: % efficacy observed): 0%
- Emax at 5 µg/mL (Gaeumannomyces graminis; Gaeumannomyces graminis, D4 5.0000 mg ai/l, read-out: % efficacy observed): 0%
- Emax at 10 µg/mL (Gaeumannomyces graminis; Gaeumannomyces graminis, D4 10.0000 mg ai/l, read-out: % efficacy observed): 0%
- Emax at 20 µg/mL (Gaeumannomyces graminis; Gaeumannomyces graminis, D4 20.0000 mg ai/l, read-out: % efficacy observed): 0%
- Emax at 10 µg/mL (Fusarium culmorum): 0%
- Emax at 20 µg/mL (Fusarium culmorum): 0%
- Emax at 0.1563 µg/mL ([2]; Monographella nivalis, D4 0.1563 mg ai/l, read-out: % efficacy observed): 6.7%
- Emax at 0.3125 µg/mL ([2]; Monographella nivalis, D4 0.3125 mg ai/l, read-out: % efficacy observed): 10.2%
- Emax at 0.625 µg/mL ([2]; Monographella nivalis, D4 0.6250 mg ai/l, read-out: % efficacy observed): 0%
- Emax at 2.5 µg/mL ([2]; Monographella nivalis, D4 2.5000 mg ai/l, read-out: % efficacy observed): 2.8%
- Emax at 5 µg/mL ([2]; Monographella nivalis, D4 5.0000 mg ai/l, read-out: % efficacy observed): 2.1%
- Emax at 10 µg/mL ([2]; Monographella nivalis, D4 10.0000 mg ai/l, read-out: % efficacy observed): 6.4%
- Emax at 20 µg/mL ([2]; Monographella nivalis, D4 20.0000 mg ai/l, read-out: % efficacy observed): 1.4%
- % efficacy observed ([1]; D4 0.6250 mg ai/l): 2.1% and 4.6%
- Emax at 0.0781 µg/mL ([1]; Thanatephorus cucumeris, read-out: % efficacy observed, D4 0.0781 mg ai/l): 0%
- Emax at 0.1563 µg/mL ([1]; Thanatephorus cucumeris, read-out: % efficacy observed, D4 0.1563 mg ai/l): 0%
- Emax at 20 µg/mL ([1]; Thanatephorus cucumeris, read-out: % efficacy observed, D4 20.0000 mg ai/l): 0%
- % efficacy observed (Ustilago nuda; D4 0.0391 mg ai/l): 8.7%
- % efficacy observed (Ustilago nuda; D4 0.0781 mg ai/l): 2.5% and 0.2%
- % efficacy observed (Ustilago nuda; D4 0.1563 mg ai/l): 3.7%
- Emax at 0.3125 µg/mL (Ustilago nuda; Ustilago nuda, D4 0.3125 mg ai/l, read-out: % efficacy observed): 0%
- Emax at 0.625 µg/mL (Ustilago nuda; Ustilago nuda, D4 0.6250 mg ai/l, read-out: % efficacy observed): 0%
- Emax at 1.25 µg/mL (Ustilago nuda; Ustilago nuda, D4 1.2500 mg ai/l, read-out: % efficacy observed): 0%
- Emax at 2.5 µg/mL (Ustilago nuda; Ustilago nuda, D4 2.5000 mg ai/l, read-out: % efficacy observed): 7%
- Emax at 20 µg/mL (Ustilago nuda; Ustilago nuda, D4 20.0000 mg ai/l, read-out: % efficacy observed): 1.3%
- Emax at 0.0391 µg/mL (Pythium ultimum; Globisporangium ultimum, D4 0.0391 mg ai/l, read-out: % efficacy observed): 0%
- Emax at 0.1563 µg/mL (Pythium ultimum; Globisporangium ultimum, D4 0.1563 mg ai/l, read-out: % efficacy observed): 0%
- Emax at 0.3125 µg/mL (Pythium ultimum; Globisporangium ultimum, D4 0.3125 mg ai/l, read-out: % efficacy observed): 0%
- Emax at 0.625 µg/mL (Pythium ultimum; Globisporangium ultimum, D4 0.6250 mg ai/l, read-out: % efficacy observed): 0%
- Emax at 1.25 µg/mL (Pythium ultimum; Globisporangium ultimum, D4 1.2500 mg ai/l, read-out: % efficacy observed): 0%
- Emax at 2.5 µg/mL (Pythium ultimum; Globisporangium ultimum, D4 2.5000 mg ai/l, read-out: % efficacy observed): 0%

Compound: N#Cc1c[nH]cc1-c1cccc2c1OC(F)(F)O2 [Fludioxonyl]
- Emax at 0.125 µg/mL [1, 3]: 13.8%
- Emax at 0.25 µg/mL [1, 3]: 66.5%
- Emax at 0.5 µg/mL [1, 3]: 60.5%
- Emax at 1 µg/mL [1, 3]: 86.8%
- Emax at 0.0313 µg/mL (Ustilago nuda; Ustilago nuda, read-out: % efficacy observed): 33.1%
